For data set [1], the target named is T1, hERG (KCNH2) (Homo sapiens, UniProt Q12809). As to the kind of experiment: Inhibition of human ERG expressed in HEK293 cells at 0.1 uM after 5 mins at -80 mV holding potential by patch clamp assay. It counts as cell-based. The conditions noted are these: HEK293 cells expressing human ERG. On the technique in general: The patch-clamp technique gives a direct electrical read-out from membranes.

The target of data set [2] is T1, hERG (KCNH2). As to the kind of experiment: Inhibition of human ERG expressed in HEK293 cells at 10 uM after 5 mins at -80 mV holding potential by patch clamp assay. The conditions noted are these: HEK293 cells expressing human ERG. It counts as cell-based.
Data set [3] addresses T1, hERG (KCNH2). Kind of data set: Inhibition of human ERG expressed in HEK293 cells at 1 uM after 5 mins at -80 mV holding potential by patch clamp assay. It counts as cell-based. The conditions noted are these: HEK293 cells expressing human ERG.
The target in data set [4] is T1, hERG (KCNH2). As to the kind of experiment: Inhibition of human ERG expressed in HEK293 cells at 0.01 uM after 5 mins at -80 mV holding potential by patch clamp assay. It counts as cell-based. The conditions noted are these: HEK293 cells expressing human ERG.
Another data set deals with Ryanodine receptor 2 (Homo sapiens, UniProt Q92736). As to the kind of experiment: Induction of FKBP12.6 re-binding to PKA-phosphorylated-RyR2 (unknown origin) after 30 mins in presence of [35S]-FKBP12.6 by liquid scintillation counting.
Data set [5] can be described thus: Cardiotoxicity in haploinsufficient FKBP12.6 expressing mouse assessed as reduction in non-sustained ventricular tachycardia at 0.2 to 1 uM under testing exercise followed by epinephrine injection relative to control. The conditions noted are these: in vivo. It counts as toxicity.
The target in another data set is L-type calcium channel (Mus musculus, UniProt Q01815+Q02789+Q99246+Q9JIS7). Kind of data set: Inhibition of L-type Ca2+ channel in mouse cardiomyocytes at holding potential of -80 or -40 mV by whole cell patch clamp assay. Type of data set: cell-based.
Data set [6] concerns the target Ryanodine receptor 1 (Mus musculus) (UniProt E9PZQ0). Kind of data set: Induction of normalization of RYR1 function in mdx dystrophin deficient mouse soleus muscle assessed as increase in average channel open dwell time at 1 uM. It counts as tissue-based.
Data set [7] can be described thus: Cardiotoxicity in haploinsufficient FKBP12.6 expressing mouse implanted with osmotic mini-pump assessed as reduction in resting heart rate in at 0.5 mg/kg/hr for 7 hrs. The conditions noted are these: in vivo. It counts as toxicity, organism-based.
The target in data set [8] is Ryanodine receptor 1 (Mus musculus) (UniProt E9PZQ0). As to the kind of experiment: Induction of calstabin-2 binding to PKA-phosphorylated RyR1 in mouse skeletal muscle at >50 nM.
The test system of data set [9] is Mus musculus. As to the kind of experiment: Improvement in soleus muscle fatigability in myocardial infarction-induced heart failure mouse model at 0.5 mg/kg/day relative to control. It counts as functional, organism-based.
Data set [10] deals with Mus musculus. As to the kind of experiment: Antiarrhythmic activity in haploinsufficient FKBP12.6 expressing mouse assessed as plasma concentration showing prevention of cardiac arrhythmias dosed via osmotic mini-pump under testing exercise followed by epinephrine injection relative to control. It counts as functional, organism-based.
Data set [11] relates to Mus musculus. Kind of data set: Improvement in soleus muscle fatigability in myocardial infarction-induced heart failure calstabin2-deficient knockout mouse at 0.5 mg/kg/day relative to control. Type of data set: functional, organism-based.
The nature of data set [12]: Cardiotoxicity in haploinsufficient FKBP12.6 expressing mouse assessed as reduction in non-sustained ventricular tachycardia at 1 uM under testing exercise followed by epinephrine injection relative to control. Type of data set: toxicity. The conditions noted are these: in vivo.
For data set [13], the species on record is Mus musculus. Kind of data set: Antiarrhythmic activity in haploinsufficient FKBP12.6 expressing mouse assessed as reduction in sustained ventricular tachycardia at 1 uM under testing exercise followed by epinephrine injection relative to control. Type of data set: functional.
The species entered for data set [14] is Mus musculus. As to the kind of experiment: Reduction in RyR2 channel opening probability in haploinsufficient FKBP12.6+/- mouse in the presence of […]. Type of data set: functional.
The target in data set [15] is Ryanodine receptor 1 (Mus musculus) (UniProt E9PZQ0). Kind of data set: Normalization of RYR1 in myocardial infarction-induced heart failure mouse soleus muscle assessed as decrease in average channel close dwell time. Type of data set: tissue-based.
Data set [16] shares this target. Kind of data set: Induction of calstabin-1 binding to PKA-phosphorylated RyR1 in mouse skeletal muscle at >50 nM.
Data set [17] shares this target. Kind of data set: Induction of calstabin-1 binding to RYR1 in myocardial infarction-induced heart failure wild type mouse soleus muscle at 0.5 mg/kg/day dosed via implantable osmotic minipumps. It counts as organism-based.
Data set [18] shares this target. Kind of data set: Induction of calstabin-1 binding to RyR1 in mouse skeletal muscle at >50 nM.
Data set [19] shares this target. Kind of data set: Inhibition of PKA-induced RyR1 phosphorylation in myocardial infarction-induced heart failure mouse soleus muscle at 0.5 mg/kg/day dosed via implantable osmotic minipumps. It counts as organism-based.
The test system of data set [20] is Mus musculus. Kind of data set: Antiarrhythmic activity in haploinsufficient FKBP12.6 expressing mouse assessed as plasma concentration showing prevention of sudden cardiac death dosed via osmotic mini-pump under testing exercise followed by epinephrine injection relative to control. Type of data set: functional, organism-based.
In data set [21] the target is Ryanodine receptor 1 (Mus musculus) (UniProt E9PZQ0). As to the kind of experiment: Induction of normalization of RYR1 function in mdx dystrophin deficient mouse soleus muscle assessed as decrease in average channel close dwell time at 1 uM. Type of data set: tissue-based.
Data set [22] shares this target. Kind of data set: Induction of normalization of RYR1 function in mdx dystrophin deficient mouse soleus muscle assessed as increase in channel open probability at 1 uM. It counts as tissue-based.
A short description of data set [23]: Cardiotoxicity in FKBP12.6 deficient mouse implanted with osmotic mini-pump assessed as reduction in resting heart rate in at 0.5 mg/kg/hr for 7 hrs. It counts as toxicity, organism-based. The conditions noted are these: in vivo.
In data set [24] the target is Ryanodine receptor 1 (Mus musculus) (UniProt E9PZQ0). Kind of data set: Induction of calstabin-2 binding to RyR1 in mouse skeletal muscle at >50 nM.
For data set [25], the system named is Mus musculus. Kind of data set: Reduction in PKA-phosphorylation of RyR2 in myocardial infarction-induced heart failure mouse model at 0.5 mg/kg/hr after 28 days post myocardial infarction. Type of data set: functional, organism-based.
Data set [26] addresses Ryanodine receptor 1 (Mus musculus) (UniProt E9PZQ0). As to the kind of experiment: Induction of calstabin-1 binding to RYR1 in myocardial infarction-induced heart failure calsiabin2-/- mouse soleus muscle at 0.5 mg/kg/day dosed via implantable osmotic minipumps. It counts as organism-based.
Data set [27] has the same target. As to the kind of experiment: Normalization of RYR1 in myocardial infarction-induced heart failure mouse soleus muscle assessed as increase in average channel open dwell time. Type of data set: tissue-based.

Each structure is given as a SMILES string. The source made the active and inactive calls. The rule behind the calls is not given here.

Chain of Ryanodine receptor 1 (Mus musculus) (E9PZQ0 whole entry): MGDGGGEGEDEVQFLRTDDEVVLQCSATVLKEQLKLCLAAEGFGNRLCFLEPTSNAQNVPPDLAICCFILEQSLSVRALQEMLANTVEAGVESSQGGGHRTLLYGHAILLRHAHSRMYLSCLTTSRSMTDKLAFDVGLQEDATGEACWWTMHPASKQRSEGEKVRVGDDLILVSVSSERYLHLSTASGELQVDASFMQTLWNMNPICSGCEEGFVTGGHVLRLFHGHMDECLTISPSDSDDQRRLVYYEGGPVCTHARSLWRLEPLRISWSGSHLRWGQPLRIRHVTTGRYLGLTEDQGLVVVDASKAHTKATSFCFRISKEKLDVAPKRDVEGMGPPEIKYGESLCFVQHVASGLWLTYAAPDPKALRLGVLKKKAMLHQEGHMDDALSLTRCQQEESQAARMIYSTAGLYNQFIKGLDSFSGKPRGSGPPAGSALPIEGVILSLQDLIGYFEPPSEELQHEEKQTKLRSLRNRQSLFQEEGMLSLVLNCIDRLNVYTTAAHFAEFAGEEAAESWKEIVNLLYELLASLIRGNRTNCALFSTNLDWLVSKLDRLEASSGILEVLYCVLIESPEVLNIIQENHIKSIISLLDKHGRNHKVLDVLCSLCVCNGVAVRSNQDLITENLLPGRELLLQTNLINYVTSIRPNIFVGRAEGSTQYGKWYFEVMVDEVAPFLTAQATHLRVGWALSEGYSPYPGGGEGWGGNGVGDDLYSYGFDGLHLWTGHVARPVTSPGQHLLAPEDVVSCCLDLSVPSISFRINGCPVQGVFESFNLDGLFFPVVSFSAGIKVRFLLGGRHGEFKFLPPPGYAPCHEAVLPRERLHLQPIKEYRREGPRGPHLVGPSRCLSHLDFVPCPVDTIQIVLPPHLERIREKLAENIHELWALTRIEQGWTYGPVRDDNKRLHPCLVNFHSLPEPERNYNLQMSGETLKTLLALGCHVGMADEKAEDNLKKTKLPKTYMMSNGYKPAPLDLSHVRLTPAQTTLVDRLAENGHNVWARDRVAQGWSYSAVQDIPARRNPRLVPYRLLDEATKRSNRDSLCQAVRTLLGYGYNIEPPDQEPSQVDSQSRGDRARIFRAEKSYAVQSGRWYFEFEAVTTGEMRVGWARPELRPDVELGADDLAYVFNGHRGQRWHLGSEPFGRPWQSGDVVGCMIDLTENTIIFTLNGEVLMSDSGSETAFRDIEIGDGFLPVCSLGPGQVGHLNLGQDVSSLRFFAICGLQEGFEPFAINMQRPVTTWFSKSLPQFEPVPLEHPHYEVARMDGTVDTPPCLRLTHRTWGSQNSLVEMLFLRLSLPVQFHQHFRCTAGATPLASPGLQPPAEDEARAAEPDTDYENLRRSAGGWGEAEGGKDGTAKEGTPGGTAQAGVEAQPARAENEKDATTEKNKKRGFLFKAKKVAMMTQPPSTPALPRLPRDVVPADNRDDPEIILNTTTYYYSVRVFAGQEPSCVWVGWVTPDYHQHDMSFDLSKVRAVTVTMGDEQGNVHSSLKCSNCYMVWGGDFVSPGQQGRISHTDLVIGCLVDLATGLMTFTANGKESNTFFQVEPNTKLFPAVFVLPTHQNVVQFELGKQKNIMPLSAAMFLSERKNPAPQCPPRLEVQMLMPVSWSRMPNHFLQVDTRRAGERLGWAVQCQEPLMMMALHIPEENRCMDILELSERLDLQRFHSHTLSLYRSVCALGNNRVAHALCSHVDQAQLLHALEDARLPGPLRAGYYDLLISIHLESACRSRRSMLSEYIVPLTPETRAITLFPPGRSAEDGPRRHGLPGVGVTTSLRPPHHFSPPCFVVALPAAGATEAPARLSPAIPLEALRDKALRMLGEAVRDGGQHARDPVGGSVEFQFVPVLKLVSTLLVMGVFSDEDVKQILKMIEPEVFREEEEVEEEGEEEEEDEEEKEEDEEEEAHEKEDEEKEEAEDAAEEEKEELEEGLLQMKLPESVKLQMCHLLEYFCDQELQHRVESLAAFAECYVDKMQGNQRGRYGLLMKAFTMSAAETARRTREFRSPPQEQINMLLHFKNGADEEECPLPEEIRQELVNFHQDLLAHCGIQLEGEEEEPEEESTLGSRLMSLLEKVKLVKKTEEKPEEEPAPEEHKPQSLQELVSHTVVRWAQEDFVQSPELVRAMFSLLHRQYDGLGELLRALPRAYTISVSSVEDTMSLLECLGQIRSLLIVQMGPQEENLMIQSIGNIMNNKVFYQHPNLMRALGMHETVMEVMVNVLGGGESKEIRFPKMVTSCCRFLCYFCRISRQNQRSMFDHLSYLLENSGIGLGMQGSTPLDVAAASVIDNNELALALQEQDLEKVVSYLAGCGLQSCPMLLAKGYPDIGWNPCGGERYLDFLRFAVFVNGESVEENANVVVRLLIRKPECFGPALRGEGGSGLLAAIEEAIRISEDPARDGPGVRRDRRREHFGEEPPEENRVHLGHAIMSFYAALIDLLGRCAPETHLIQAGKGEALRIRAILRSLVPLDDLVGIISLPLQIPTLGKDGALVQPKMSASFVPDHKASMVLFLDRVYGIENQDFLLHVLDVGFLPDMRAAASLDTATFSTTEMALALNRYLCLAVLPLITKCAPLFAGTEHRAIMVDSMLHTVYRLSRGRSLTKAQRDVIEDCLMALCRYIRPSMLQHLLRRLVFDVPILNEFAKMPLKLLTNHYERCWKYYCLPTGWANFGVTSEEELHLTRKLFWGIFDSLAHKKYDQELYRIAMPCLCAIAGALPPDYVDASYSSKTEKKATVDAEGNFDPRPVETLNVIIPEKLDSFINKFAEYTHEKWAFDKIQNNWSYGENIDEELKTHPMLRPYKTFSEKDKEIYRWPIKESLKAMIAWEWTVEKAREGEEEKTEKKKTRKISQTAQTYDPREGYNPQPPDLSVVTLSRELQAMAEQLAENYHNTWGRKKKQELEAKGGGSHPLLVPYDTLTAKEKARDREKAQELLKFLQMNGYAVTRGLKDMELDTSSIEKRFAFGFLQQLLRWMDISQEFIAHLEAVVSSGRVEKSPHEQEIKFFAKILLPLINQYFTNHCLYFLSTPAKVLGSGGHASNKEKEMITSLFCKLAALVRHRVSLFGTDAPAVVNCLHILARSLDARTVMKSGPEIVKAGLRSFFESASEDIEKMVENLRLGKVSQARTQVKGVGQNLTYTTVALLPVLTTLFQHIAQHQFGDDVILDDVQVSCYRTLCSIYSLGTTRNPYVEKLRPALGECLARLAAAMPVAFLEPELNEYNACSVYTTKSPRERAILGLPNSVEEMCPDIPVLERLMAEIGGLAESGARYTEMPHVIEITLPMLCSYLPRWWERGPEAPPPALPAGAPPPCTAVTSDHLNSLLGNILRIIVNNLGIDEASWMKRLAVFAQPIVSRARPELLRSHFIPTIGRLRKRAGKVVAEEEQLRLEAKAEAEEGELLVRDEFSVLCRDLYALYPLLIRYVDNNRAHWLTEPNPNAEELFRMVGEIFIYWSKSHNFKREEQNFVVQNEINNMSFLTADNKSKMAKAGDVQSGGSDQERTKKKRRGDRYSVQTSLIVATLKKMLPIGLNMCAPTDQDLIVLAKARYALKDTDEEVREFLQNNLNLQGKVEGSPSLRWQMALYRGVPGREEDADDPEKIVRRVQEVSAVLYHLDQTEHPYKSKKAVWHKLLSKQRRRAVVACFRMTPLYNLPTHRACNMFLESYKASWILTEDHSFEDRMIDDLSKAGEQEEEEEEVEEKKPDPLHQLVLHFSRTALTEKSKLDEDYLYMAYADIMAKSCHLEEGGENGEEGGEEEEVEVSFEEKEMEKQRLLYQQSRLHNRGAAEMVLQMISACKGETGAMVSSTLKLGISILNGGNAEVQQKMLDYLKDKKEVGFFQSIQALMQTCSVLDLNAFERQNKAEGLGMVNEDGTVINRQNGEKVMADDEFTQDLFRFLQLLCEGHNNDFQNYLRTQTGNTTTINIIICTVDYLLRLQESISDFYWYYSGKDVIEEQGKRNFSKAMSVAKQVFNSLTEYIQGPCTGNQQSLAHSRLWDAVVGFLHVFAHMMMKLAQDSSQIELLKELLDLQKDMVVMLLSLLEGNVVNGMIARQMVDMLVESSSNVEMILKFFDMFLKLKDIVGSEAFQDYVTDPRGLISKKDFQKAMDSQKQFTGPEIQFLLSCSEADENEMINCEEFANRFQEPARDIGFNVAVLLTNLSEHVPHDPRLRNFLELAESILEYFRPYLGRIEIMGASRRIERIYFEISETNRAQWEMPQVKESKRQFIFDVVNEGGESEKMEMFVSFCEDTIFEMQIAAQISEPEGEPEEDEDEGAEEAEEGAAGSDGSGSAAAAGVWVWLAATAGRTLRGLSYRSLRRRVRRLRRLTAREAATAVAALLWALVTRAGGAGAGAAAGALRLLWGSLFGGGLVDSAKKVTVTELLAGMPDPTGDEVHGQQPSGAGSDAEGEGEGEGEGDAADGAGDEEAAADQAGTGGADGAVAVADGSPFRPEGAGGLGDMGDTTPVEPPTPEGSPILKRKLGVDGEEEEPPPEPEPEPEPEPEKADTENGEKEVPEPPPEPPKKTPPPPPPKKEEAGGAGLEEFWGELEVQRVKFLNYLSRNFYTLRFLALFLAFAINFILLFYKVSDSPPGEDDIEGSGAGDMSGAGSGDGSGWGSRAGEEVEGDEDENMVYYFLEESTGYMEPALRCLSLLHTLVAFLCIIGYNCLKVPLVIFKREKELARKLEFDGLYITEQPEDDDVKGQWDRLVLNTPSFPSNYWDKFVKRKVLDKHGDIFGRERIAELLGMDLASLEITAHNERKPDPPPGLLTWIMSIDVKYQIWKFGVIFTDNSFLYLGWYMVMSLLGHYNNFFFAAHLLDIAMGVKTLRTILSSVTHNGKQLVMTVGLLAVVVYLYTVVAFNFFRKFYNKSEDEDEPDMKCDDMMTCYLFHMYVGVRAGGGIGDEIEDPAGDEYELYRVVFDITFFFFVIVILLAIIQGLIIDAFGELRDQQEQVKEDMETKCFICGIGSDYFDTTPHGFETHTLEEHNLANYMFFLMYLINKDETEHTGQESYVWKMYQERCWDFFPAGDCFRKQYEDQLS

One may read the inhibition as the share of the control response that was lost under treatment. On hERG (KCNH2) [1], `COc1ccc2c(c1)CN(C(=O)c1ccc(N=[N+]=[N-])cc1O)CCS2` yielded an inhibition at 5 min, 0.1 µM of 3.6%. This compound also had an inhibition at 5 min, 10 µM on hERG (KCNH2) [2] of 14%. At hERG (KCNH2) [3], this compound returned an inhibition at 5 min, 1 µM of 4.1%. The same compound returned an inhibition at 5 min, 0.01 µM at hERG (KCNH2) [4] of 1.3%.
A word on the EC50: it is the concentration giving half of the maximal effect. `c1ccc2c(c1)CNCCS2`: the EC50 on Ryanodine receptor 2 came out at 100 nM.
`COc1ccc2c(c1)CN(C(=O)N1CCCCC1)CCS2` showed an inhibition at 5 min, 0.1 µM at hERG (KCNH2) [1] of 3.7%. This compound also yielded an inhibition at 5 min, 10 µM at hERG (KCNH2) [2] of 24.2%. This compound also yielded an inhibition at 5 min, 1 µM at hERG (KCNH2) [3] of 6.1%. On hERG (KCNH2) [4], this compound came in with an inhibition at 5 min, 0.01 µM of 1.8%.
Turning to `COc1ccc2c(c1)CN(C(=O)C(=O)O)CCS2` [ALADORIAN], the Activity entry in [5] is “Non-Toxic”.
`COC(=O)C1=C(C)NC(C)=C(C(=O)OC)C1c1ccccc1[N+](=O)[O-]` [NIFEDIPINE]: on L-type calcium channel, the “inhibition (INH)” value was “Active”.
On to `C=CC(=O)N1CCSc2ccc(OC)cc2C1`, for which the half-maximal effective concentration (EC50) on Ryanodine receptor 2 was determined as 50 nM.
For the compound `COc1ccc2c(c1)CN(C(=O)C(=O)O)CCS2` [ALADORIAN SODIUM], the inhibition at 5 min, 0.1 µM on hERG (KCNH2) [1] turned out to be 6%. Besides, the inhibition at 5 min, 10 µM on hERG (KCNH2) [2] came to 6.7%. The compound also came in with an inhibition at 5 min, 1 µM against hERG (KCNH2) [3] of 5.5%. The compound further had an inhibition at 5 min, 0.01 µM on hERG (KCNH2) [4] of 0.2%.
`COc1ccc2c(c1)CN(C(=O)CCN1CCC(Cc3ccccc3)CC1)CCS2.Cl`: the TIME in data set [6] was 4.44e-07 h; in [15], 0.000435 to 0.000441 h; in data set [21], 0.000287 h; in data set [27] it was 4.17e-07 to 5e-07 h. Besides, the Activity result in [7], in data set [12] and in data set [23] was “Non-Toxic” each time. In addition, the outcome (in data set [8]; in the data set with Mus musculus [9]; in the data set on Mus musculus [11]; in the data set listed under Mus musculus [13]; in the data set listed under Mus musculus [14]; in [16]) was Active. Besides, the outcome (in [17]; in [18]; in data set [22]; in data set [24]; in the data set with Mus musculus [25]; in [26]) was Active. Also, the Cp in the data set on Mus musculus [10] and in the data set on Mus musculus [20] was 1 µM throughout. Moreover, in data set [19], the inhibition entry is “Active”.
`COc1ccc2c(c1)CN(C(=O)C(=O)O)CCS2(=O)=O`: the inhibition at 5 min, 0.1 µM at hERG (KCNH2) [1] is 2.5%. At hERG (KCNH2) [2], this compound had an inhibition at 5 min, 10 µM of 7.4%. Also, the inhibition at 5 min, 1 µM at hERG (KCNH2) [3] turned out to be 4.6%. In addition, the inhibition at 5 min, 0.01 µM against hERG (KCNH2) [4] is 1.6%.

Source of the values: ChEMBL document CHEMBL3880390, “Agents for preventing and treating disorders involving modulation of the RYR receptors” (2014).
